Measurements as given in PMC10304221, “Pharmacokinetic and Biomarker Quantification Studies on Vancomycin-Loaded PEGylated Liposomes and Its Potential to Reduce Vancomycin-Induced Kidney Injury: A Rat Study” (Pharmaceutics, 2023).
Where a name gives a salt, the structure may show the parent alone.

Columns and labels:
[1] = stated in the chemicals section, no method or reference given, cited from earlier work
Method: The 0.9% NaCl (Sing-Tong, Taiwan), Acetonitrile (CAN; Fisher Scientific U.K. Ltd., Loughborough, England), Bupivacaine (Marcaine®; AstraZeneca, Cambridge, UK), formic acid (FA; Merck, Germany), DMSO (Merck, Darmstadt, Germany), Ketalar injection (50 mg/mL; Pfizer, New York, NY, USA), methanol (MeOH; AENCORE, Australia), PBS (Sigma, USA), pentobarbital (Health-Tech Pharmaceutical Co., Ltd., Taiwan), Rompun injection (2%; Bayer, Leverkusen, Germany), and sodium heparin bodene (Pty) (Limited Trading as Intramed, Maharashtra, India). Acetonitrile, chloroform, and methanol VWR International (Radno ...

[2] = Plasma pharmacokinetics of vancomycin in rats, LC-MS/MS with non-compartmental analysis; settings: rat plasma
[3] = day three, 150 mg/kg IV 3 min infusion qd x3, NCA, LC-MS/MS, mean, n = 6

CN[C@H](CC(C)C)C(=O)N[C@H]1C(=O)N[C@@H](CC(N)=O)C(=O)N[C@H]2C(=O)N[C@H]3C(=O)N[C@H](C(=O)N[C@H](C(=O)O)c4cc(O)cc(O)c4-c4cc3ccc4O)[C@H](O)c3ccc(c(Cl)c3)Oc3cc2cc(c3O[C@@H]2O[C@H](CO)[C@@H](O)[C@H](O)[C@H]2O[C@H]2C[C@](C)(N)[C@H](O)[C@H](C)O2)Oc2ccc(cc2Cl)[C@H]1O [Vancomycin Hydrochloride, Vancomycin hydrochloride]
Solubility in acetone, ether, and chloroform ([1]; acetone, ether, chloroform): insoluble
Solubility in methanol ([1]; methanol): moderately soluble
Solubility in water ([1]; water): more than 100 mg/mL
Reduction in plasma vancomycin concentration compared to the PEG-VANCO-lipo group ([2]; day one at 0.5 and 1 h, day three at 1, 2 and 4 h, 150 mg/kg IV qd x3, n = 3, p ≤ 0.05, Tukey's two-way ANOVA): 2–5 fold
t1/2 ([2]; day three, 150 mg/kg IV 3 min infusion qd x3, NCA (WinNonlin), LC-MS/MS, mean, n = 6): 13.26 h
AUCINF [2, 3]: 1461.44 µg·h/mL
C0 (initial concentration estimated by back-extrapolation) [2, 3]: 186.69 µg/mL
CL [2, 3]: 1.7533 mL/min/kg
MRT [2, 3]: 17.073 h
